# The supplement of paper PMC10307832
# What was measured:
# Assay in all cases: relative viability (nuclei count vs DMSO), 5 days (fraction); higher = more cells survive
# [1] = compound: CC1(C)CCC(CN2CCN(c3ccc(C(=O)NS(=O)(=O)c4ccc(NCC5CCOCC5)c([N+](=O)[O-])c4)c(Oc4cnc5[nH]ccc5c4)c3)CC2)=C(c2ccc(Cl)cc2)C1 [Venetoclax] + CS(=O)(=O)CCNCc1ccc(-c2ccc3ncnc(Nc4ccc(OCc5cccc(F)c5)c(Cl)c4)c3c2)o1 [Lapatinib] (partner 2 µM)
# In short: (§1)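 A single step with final 0.05% Triton X-100, 1% formaldehyde and 1 ug/ml Hoechst fixed the cells and stained nuclei 5 days after treatment. Lung cancer cell lines in 1536-well plates had been treated by pin tool the day after seeding with one drug alone or a fixed anchor-drug dose plus five library-drug doses (not always all listed) in √10 steps, and nuclei were counted on 4× images. Relative viability is the ratio of nuclei in treated wells to nuclei in vehicle wells, taken as the median of duplicate plates.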
# [2] = compound: CC1(C)CCC(CN2CCN(c3ccc(C(=O)NS(=O)(=O)c4ccc(NCC5CCOCC5)c([N+](=O)[O-])c4)c(Oc4cnc5[nH]ccc5c4)c3)CC2)=C(c2ccc(Cl)cc2)C1 [Venetoclax] + CS(=O)(=O)N1CCN(Cc2cc3nc(-c4cccc5[nH]ncc45)nc(N4CCOCC4)c3s2)CC1 [Pictilisib] (partner 1 µM)
# In short: as §1
# [3] = compound: Cn1cnc2c(F)c(Nc3ccc(Br)cc3Cl)c(C(=O)NOCCO)cc21 [Selumetinib] + CS(=O)(=O)CCNCc1ccc(-c2ccc3ncnc(Nc4ccc(OCc5cccc(F)c5)c(Cl)c4)c3c2)o1 [Lapatinib] (partner 2 µM)
# In short: as §1
# [4] = compound: Cn1cnc2c(F)c(Nc3ccc(Br)cc3Cl)c(C(=O)NOCCO)cc21 [Selumetinib] + Cc1nc(NC(=O)N2CCC[C@H]2C(N)=O)sc1-c1ccnc(C(C)(C)C(F)(F)F)c1 [Alpelisib] (partner 2 µM)
# In short: as §1
Cell Line,relative viability ([1]; first compound 0.01 µM),relative viability ([1]; first compound 0.03162 µM),relative viability ([1]; first compound 0.1 µM),relative viability ([1]; first compound 0.3162 µM),relative viability ([1]; first compound 1 µM),relative viability ([2]; first compound 0.01 µM),relative viability ([2]; first compound 0.03162 µM),relative viability ([2]; first compound 0.1 µM),relative viability ([2]; first compound 0.3162 µM),relative viability ([2]; first compound 1 µM),relative viability ([3]; first compound 0.02 µM),relative viability ([3]; first compound 0.06325 µM),relative viability ([3]; first compound 0.2 µM),relative viability ([3]; first compound 0.6325 µM),relative viability ([4]; first compound 0.02 µM),relative viability ([4]; first compound 0.06325 µM),relative viability ([4]; first compound 0.2 µM),relative viability ([4]; first compound 0.6325 µM)
EBC-1,0.213,0.187,0.234,0.206,0.224,0.436,0.59,0.348,0.339,0.406,0.203,0.201,0.239,0.199,0.779,0.591,0.556,0.361
NCI-H1993,0.783,0.861,0.796,0.733,0.813,1.03,0.802,0.8,0.685,0.78,0.931,0.762,0.887,0.706,0.681,0.584,0.769,0.702
NCI-H650,0.726,0.86,–,0.963,0.882,0.805,0.855,–,0.842,0.797,1.12,1.24,1.34,1.37,1.33,1.08,1.19,1.09
NCI-H460,0.971,0.974,0.994,0.935,0.866,0.394,0.43,0.316,0.385,0.367,0.921,0.709,0.555,0.399,0.464,0.21,0.172,0.137
NCI-H1437,0.766,0.873,0.758,0.742,0.703,0.538,0.443,0.435,0.386,0.404,0.588,0.528,0.351,0.252,0.914,0.855,0.292,0.206
NCI-H2347,0.948,0.949,0.983,0.872,0.922,0.606,0.606,0.668,0.746,0.123,0.795,0.706,0.574,0.436,0.832,0.613,0.445,0.387
LC-2-ad,0.986,0.899,0.876,0.973,0.938,0.45,0.401,0.387,0.516,0.555,0.91,0.879,0.736,0.842,0.862,0.82,0.66,0.848
NCI-H661,0.519,0.615,0.491,0.5,0.487,0.466,0.446,0.455,0.415,0.347,0.449,0.466,0.427,0.351,0.653,0.598,0.501,0.606
